Source: PubChem BioAssay (NCI)
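GI50: concentration for 50% inhibition of growth. TGI is the concentration that stops growth completely.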

Legend:
Assay in all cases: NCI anticancer screen, dose series, 384-well format
SN12C renal = tested on: SN12C renal
OVCAR-4 ovarian = tested on: OVCAR-4 ovarian
SF-539 CNS = tested on: SF-539 CNS
IGROV1 ovarian = tested on: IGROV1 ovarian
NCI-H226 lung = tested on: NCI-H226 lung
HOP-62 NSCLC = tested on: HOP-62 NSCLC
UO-31 renal = tested on: UO-31 renal
SF-268 CNS = tested on: SF-268 CNS
T-47D breast = tested on: T-47D breast
HL-60(TB) leukemia = tested on: HL-60(TB) leukemia
NCI-H322M lung = tested on: NCI-H322M lung
HS 578T breast = tested on: HS 578T breast
CAKI-1 renal = tested on: CAKI-1 renal
786-0 renal = tested on: 786-0 renal
KM12 colon = tested on: KM12 colon
A498 renal = tested on: A498 renal
HCT-15 colon = tested on: HCT-15 colon
CCRF-CEM leukemia = tested on: CCRF-CEM leukemia
M14 melanoma = tested on: M14 melanoma
MDA-MB-468 breast = tested on: MDA-MB-468 breast
OVCAR-5 ovarian = tested on: OVCAR-5 ovarian
SK-MEL-28 melanoma = tested on: SK-MEL-28 melanoma
PC-3 prostate = tested on: PC-3 prostate
BT-549 breast = tested on: BT-549 breast
LOX IMVI melanoma = tested on: LOX IMVI melanoma
U251 glioblastoma = tested on: U251 glioblastoma

**Q.** `O=C(Nc1cn[nH]c1-c1nc2ccc(CN3CCOCC3)cc2[nH]1)NC1CC1` was tested. Which GI50 (SN12C renal) did it give?
**A.** 1030 nM

**Q.** What about the TGI (SN12C renal) of the same molecule?
**A.** 2420 nM

**Q.** What about the GI50 (OVCAR-4 ovarian) of the same molecule?
**A.** 1120 nM

**Q.** And the TGI (OVCAR-4 ovarian)?
**A.** 5390 nM

**Q.** And the GI50 (SF-539 CNS)?
**A.** 168 nM

**Q.** And the TGI (SF-539 CNS)?
**A.** 453 nM

**Q.** And the GI50 (IGROV1 ovarian)?
**A.** 633 nM

**Q.** What about the TGI (IGROV1 ovarian) of the same molecule?
**A.** > 100000 nM

**Q.** And the GI50 (NCI-H226 lung)?
**A.** 85.8 nM

**Q.** What about the TGI (NCI-H226 lung) of the same molecule?
**A.** 273 nM

**Q.** And the GI50 (HOP-62 NSCLC)?
**A.** 184 nM

**Q.** And the TGI (HOP-62 NSCLC)?
**A.** 1390 nM

**Q.** What about the GI50 (UO-31 renal) of the same molecule?
**A.** 111 nM

**Q.** And the TGI (UO-31 renal)?
**A.** 1210 nM

**Q.** What about the GI50 (SF-268 CNS) of the same molecule?
**A.** 103 nM

**Q.** What about the TGI (SF-268 CNS) of the same molecule?
**A.** 436 nM

**Q.** And the GI50 (T-47D breast)?
**A.** 2200 nM

**Q.** And the TGI (T-47D breast)?
**A.** 6040 nM

**Q.** What about the GI50 (HL-60(TB) leukemia) of the same molecule?
**A.** 13 nM

**Q.** What about the TGI (HL-60(TB) leukemia) of the same molecule?
**A.** 28.1 nM

**Q.** What about the GI50 (NCI-H322M lung) of the same molecule?
**A.** 1290 nM

**Q.** And the TGI (NCI-H322M lung)?
**A.** 3480 nM

**Q.** What about the GI50 (HS 578T breast) of the same molecule?
**A.** 33.6 nM

**Q.** What about the TGI (HS 578T breast) of the same molecule?
**A.** 73.5 nM

**Q.** And the GI50 (CAKI-1 renal)?
**A.** 71.8 nM

**Q.** What about the TGI (CAKI-1 renal) of the same molecule?
**A.** > 100000 nM

**Q.** And the GI50 (786-0 renal)?
**A.** 261 nM

**Q.** What about the TGI (786-0 renal) of the same molecule?
**A.** 10200 nM

**Q.** And the GI50 (KM12 colon)?
**A.** 1040 nM

**Q.** What about the TGI (KM12 colon) of the same molecule?
**A.** 3490 nM

**Q.** What about the GI50 (A498 renal) of the same molecule?
**A.** 289 nM

**Q.** What about the TGI (A498 renal) of the same molecule?
**A.** 6650 nM

**Q.** What about the GI50 (HCT-15 colon) of the same molecule?
**A.** 1540 nM

**Q.** What about the TGI (HCT-15 colon) of the same molecule?
**A.** 11600 nM

**Q.** What about the TGI (CCRF-CEM leukemia) of the same molecule?
**A.** 28 nM

**Q.** What about the GI50 (M14 melanoma) of the same molecule?
**A.** 364 nM

**Q.** And the TGI (M14 melanoma)?
**A.** 2210 nM

**Q.** What about the GI50 (MDA-MB-468 breast) of the same molecule?
**A.** 16.9 nM

**Q.** And the TGI (MDA-MB-468 breast)?
**A.** 36.7 nM

**Q.** And the GI50 (OVCAR-5 ovarian)?
**A.** 1810 nM

**Q.** And the TGI (OVCAR-5 ovarian)?
**A.** > 100000 nM

**Q.** And the GI50 (SK-MEL-28 melanoma)?
**A.** 1350 nM

**Q.** What about the TGI (SK-MEL-28 melanoma) of the same molecule?
**A.** 2910 nM

**Q.** What about the GI50 (PC-3 prostate) of the same molecule?
**A.** 299 nM

**Q.** And the TGI (PC-3 prostate)?
**A.** 13900 nM

**Q.** And the GI50 (BT-549 breast)?
**A.** 58.7 nM

**Q.** What about the TGI (BT-549 breast) of the same molecule?
**A.** 386 nM

**Q.** What about the GI50 (LOX IMVI melanoma) of the same molecule?
**A.** 248 nM

**Q.** And the TGI (LOX IMVI melanoma)?
**A.** 1120 nM

**Q.** What about the GI50 (U251 glioblastoma) of the same molecule?
**A.** 228 nM

**Q.** And the TGI (U251 glioblastoma)?
**A.** 1300 nM
